Data published in ChEMBL document CHEMBL4609972, “Histone deacetylase 8 (HDAC8) and its inhibitors with selectivity to other isoforms: An overview” (Eur J Med Chem, 2019).
Square brackets hold non-standard residues; d marks the D form. Peptide text beside a SMILES is read from it. * marks the point of attachment. Asu = N[C@@H](CCCCCC(=O)O)C(=O)O; NHOH = ON*

Assays:
[1] = molecular target: T1, Protein deacetylase HDAC6 (Homo sapiens, UniProt Q9UBN7); assay: Inhibition of HDAC6 (unknown origin)
T1 sequence (Q9UBN7 whole entry): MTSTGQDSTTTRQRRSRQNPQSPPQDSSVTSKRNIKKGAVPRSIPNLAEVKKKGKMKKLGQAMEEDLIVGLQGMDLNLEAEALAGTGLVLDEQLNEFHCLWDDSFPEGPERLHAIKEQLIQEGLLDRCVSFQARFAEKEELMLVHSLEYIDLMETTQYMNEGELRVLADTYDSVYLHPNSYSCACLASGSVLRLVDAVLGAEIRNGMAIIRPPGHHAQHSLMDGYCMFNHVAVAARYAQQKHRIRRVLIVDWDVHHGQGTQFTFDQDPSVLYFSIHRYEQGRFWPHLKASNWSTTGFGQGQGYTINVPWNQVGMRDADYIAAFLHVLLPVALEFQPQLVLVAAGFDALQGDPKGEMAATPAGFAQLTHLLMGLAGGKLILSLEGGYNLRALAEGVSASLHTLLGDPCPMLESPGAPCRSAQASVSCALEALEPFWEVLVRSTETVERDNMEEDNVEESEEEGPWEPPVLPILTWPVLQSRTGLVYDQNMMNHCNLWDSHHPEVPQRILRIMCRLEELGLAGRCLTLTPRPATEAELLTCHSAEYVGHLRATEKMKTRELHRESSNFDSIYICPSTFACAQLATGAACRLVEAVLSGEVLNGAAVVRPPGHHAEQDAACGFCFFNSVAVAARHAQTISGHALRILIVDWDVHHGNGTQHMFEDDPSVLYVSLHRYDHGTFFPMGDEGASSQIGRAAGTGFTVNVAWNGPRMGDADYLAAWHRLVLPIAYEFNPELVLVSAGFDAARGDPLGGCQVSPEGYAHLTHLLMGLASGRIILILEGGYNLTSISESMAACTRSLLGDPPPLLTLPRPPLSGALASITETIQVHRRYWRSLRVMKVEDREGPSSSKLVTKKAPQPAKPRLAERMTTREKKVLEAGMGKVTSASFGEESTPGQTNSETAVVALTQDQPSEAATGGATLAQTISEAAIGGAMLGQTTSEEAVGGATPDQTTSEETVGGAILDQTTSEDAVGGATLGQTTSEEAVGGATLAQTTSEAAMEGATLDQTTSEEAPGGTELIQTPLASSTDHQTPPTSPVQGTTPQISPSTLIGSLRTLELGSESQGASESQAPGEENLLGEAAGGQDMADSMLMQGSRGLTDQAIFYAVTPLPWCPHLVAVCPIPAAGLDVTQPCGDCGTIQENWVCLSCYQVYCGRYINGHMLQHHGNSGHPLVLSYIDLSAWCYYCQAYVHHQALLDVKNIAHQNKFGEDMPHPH

Histone deacetylase 8 = molecular target: T2, Histone deacetylase 8 (Homo sapiens, UniProt Q9BY41); assay: Inhibition of HDAC8 (unknown origin)
T2 sequence (Q9BY41 whole entry): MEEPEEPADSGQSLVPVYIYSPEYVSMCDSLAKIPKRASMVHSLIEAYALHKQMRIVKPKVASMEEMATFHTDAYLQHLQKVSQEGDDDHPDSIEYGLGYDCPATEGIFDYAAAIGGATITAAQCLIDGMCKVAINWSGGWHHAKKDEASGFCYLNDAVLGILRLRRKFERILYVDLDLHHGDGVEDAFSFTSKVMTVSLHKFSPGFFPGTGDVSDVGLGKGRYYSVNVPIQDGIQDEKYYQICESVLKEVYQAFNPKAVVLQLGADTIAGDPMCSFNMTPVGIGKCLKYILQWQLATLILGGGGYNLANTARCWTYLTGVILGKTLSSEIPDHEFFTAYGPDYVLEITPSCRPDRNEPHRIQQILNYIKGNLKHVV

[2] = molecular target: 72 kDa type IV collagenase (Homo sapiens, UniProt P08253); assay: Inhibition of MMP2 (unknown origin)
Histone deacetylase = assay: Inhibition of HDAC (unknown origin); assay type: protein assay, Homo sapiens

Sequence of 72 kDa type IV collagenase (P08253 whole entry): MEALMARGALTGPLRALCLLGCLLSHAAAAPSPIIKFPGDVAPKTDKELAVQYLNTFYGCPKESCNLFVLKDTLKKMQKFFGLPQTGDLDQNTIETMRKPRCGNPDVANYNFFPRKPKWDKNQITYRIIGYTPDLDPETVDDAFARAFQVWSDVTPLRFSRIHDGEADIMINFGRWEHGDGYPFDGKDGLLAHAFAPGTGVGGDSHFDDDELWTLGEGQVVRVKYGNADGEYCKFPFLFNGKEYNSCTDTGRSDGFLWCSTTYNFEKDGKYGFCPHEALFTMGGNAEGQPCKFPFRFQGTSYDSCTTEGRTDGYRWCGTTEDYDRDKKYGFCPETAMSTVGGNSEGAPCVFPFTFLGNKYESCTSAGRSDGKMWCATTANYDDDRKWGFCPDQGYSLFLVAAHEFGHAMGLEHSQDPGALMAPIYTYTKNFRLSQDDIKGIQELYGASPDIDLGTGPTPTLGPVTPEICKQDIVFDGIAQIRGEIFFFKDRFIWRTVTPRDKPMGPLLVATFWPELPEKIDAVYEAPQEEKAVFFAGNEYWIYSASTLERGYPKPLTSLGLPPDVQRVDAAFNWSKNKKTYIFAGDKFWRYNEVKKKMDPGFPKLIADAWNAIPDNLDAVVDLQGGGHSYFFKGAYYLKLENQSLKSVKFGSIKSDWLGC

| IC50 [1] [µM] | IC50 (Histone deacetylase 8) [µM] | Compound | also measured |
| --- | --- | --- | --- |
| 0.376 | – | O=C(NO)c1ccc(CN(CCO)C(=O)Cc2ccccc2)cc1 | – |
| 1.4 | – | O=C(NO)c1ccc(NCc2csc3ccccc23)cc1 | – |
| 0.417 | – | CC(C)[C@@H](C#Cc1ccc(C(=O)NO)cc1)NC(=O)C1Cc2ccccc2O1 (some centres undefined) | – |

More lines, now with the values behind:

| Compound | IC50 [1] [µM] | IC50 (Histone deacetylase 8) [µM] | also measured |
| --- | --- | --- | --- |
| O=C(O)CC[C@@H](NC(=O)Cc1ccc(Br)cc1)C(=O)NCc1ccc([N+](=O)[O-])cc1 | – | 2.89 | IC50 [2]: 2.89 µM |
| O=C(CCCCCNC(=O)c1ccc(NC(=O)NC(C(=O)Nc2cccc(C(F)(F)F)c2)c2ccccc2)cc1)NO (centres undefined) | – | 0.967 | – |
| O=C(CCCCCCC(=O)Nc1cc(C(F)(F)F)ccc1Cl)NO | – | 0.119 | – |
| O=C(NO)c1cccc(-c2nc(CSc3ccccc3)n[nH]2)c1 | – | 0.053 | – |
| CC[C@H](C)[C@@H]1NC(=O)[C@@H](Cc2ccc(OC)cc2)NC(=O)[C@H](CCCCCC(=O)NO)NC(=O)[C@H]2CCCN2C1=O (cyclo([Asu](NHOH)[dY](Me)I[dP])) | – | – | IC50 (Histone deacetylase): 0.00332 µM |
